Tests used:
[1] = target: T1, Serine/threonine-protein kinase Chk1 (Homo sapiens) (UniProt O14757); assay: Selectivity interaction (Upstate Kinase Profiler service (Millipore)) EUB0000056c CHEK1; conditions: at 1 µM
T1 sequence (whole entry): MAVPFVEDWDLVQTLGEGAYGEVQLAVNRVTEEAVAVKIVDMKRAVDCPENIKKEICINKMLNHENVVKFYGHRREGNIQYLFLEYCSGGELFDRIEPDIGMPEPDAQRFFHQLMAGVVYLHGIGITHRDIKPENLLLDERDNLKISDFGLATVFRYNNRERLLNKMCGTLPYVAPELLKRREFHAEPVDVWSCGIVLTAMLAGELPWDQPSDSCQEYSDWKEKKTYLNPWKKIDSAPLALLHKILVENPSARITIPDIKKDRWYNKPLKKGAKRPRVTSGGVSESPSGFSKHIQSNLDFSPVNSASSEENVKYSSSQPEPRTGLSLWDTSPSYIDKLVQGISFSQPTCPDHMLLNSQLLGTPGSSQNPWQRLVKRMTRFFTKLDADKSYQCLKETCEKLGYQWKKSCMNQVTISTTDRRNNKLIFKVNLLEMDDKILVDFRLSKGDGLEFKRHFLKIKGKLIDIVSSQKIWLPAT

[2] = target: TGF-beta receptor type-2 (Homo sapiens) (UniProt P37173); assay: Selectivity interaction (KinomeScan (DiscoverX)) EUB0000666a TGFBR2; conditions: at 10 µM
[3] = target: Ribosomal protein S6 kinase alpha-6 (Homo sapiens, UniProt Q9UK32); assay: Selectivity interaction (Kinase panel (Z-LYTE Assay)) EUB0001632a RPS6KA6; conditions: at 10 µM
[4] = target: Serine/threonine-protein kinase N2 (Homo sapiens, UniProt Q16513); assay: Selectivity interaction (LanthaScreen Eu Kinase Binding Assay) EUB0001632a PKN2; conditions: at 10 µM
[5] = target: 5'-AMP-activated protein kinase catalytic subunit alpha-1 (Homo sapiens, UniProt Q13131); assay: Selectivity interaction (Kinase panel (Invitrogen)) EUB0000639a PRKAA1; conditions: at 200 nM
[6] = target: T2, Dual specificity protein kinase TTK (Homo sapiens) (UniProt P33981); assay: Selectivity interaction (KinomeScan (DiscoverX)) EUB0000618a TTK; conditions: at 10 µM
T2 sequence (whole entry): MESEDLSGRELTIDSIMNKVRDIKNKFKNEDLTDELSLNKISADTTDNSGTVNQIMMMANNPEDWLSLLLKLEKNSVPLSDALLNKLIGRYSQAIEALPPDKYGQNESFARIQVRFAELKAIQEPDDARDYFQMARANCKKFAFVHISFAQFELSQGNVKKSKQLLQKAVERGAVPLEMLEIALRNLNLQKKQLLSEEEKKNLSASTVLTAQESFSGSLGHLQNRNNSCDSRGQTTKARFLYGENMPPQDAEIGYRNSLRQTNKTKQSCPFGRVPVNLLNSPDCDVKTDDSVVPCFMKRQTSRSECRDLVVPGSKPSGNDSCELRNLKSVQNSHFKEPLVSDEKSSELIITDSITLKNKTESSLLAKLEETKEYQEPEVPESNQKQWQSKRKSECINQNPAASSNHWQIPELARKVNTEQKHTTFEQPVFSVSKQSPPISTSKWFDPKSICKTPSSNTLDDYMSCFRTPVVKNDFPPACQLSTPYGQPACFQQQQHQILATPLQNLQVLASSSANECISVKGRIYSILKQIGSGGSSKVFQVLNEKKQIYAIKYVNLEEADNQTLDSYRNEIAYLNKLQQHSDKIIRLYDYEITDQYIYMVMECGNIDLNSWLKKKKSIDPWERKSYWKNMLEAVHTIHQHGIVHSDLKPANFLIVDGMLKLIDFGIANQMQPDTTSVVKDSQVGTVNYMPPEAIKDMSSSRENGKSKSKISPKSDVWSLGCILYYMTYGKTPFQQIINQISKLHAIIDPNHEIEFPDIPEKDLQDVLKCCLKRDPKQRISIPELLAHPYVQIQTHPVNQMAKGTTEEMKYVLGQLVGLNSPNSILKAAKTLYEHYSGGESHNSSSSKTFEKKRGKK

[7] = target: T3, Ephrin type-B receptor 1 (Homo sapiens) (UniProt P54762); assay: Selectivity interaction (Ambit KINOMEscan and KiNATiv profiling in Jurkat cells) EUB0000090b EPHB1; type: cell-based; conditions: at 1 µM
T3 sequence (whole entry): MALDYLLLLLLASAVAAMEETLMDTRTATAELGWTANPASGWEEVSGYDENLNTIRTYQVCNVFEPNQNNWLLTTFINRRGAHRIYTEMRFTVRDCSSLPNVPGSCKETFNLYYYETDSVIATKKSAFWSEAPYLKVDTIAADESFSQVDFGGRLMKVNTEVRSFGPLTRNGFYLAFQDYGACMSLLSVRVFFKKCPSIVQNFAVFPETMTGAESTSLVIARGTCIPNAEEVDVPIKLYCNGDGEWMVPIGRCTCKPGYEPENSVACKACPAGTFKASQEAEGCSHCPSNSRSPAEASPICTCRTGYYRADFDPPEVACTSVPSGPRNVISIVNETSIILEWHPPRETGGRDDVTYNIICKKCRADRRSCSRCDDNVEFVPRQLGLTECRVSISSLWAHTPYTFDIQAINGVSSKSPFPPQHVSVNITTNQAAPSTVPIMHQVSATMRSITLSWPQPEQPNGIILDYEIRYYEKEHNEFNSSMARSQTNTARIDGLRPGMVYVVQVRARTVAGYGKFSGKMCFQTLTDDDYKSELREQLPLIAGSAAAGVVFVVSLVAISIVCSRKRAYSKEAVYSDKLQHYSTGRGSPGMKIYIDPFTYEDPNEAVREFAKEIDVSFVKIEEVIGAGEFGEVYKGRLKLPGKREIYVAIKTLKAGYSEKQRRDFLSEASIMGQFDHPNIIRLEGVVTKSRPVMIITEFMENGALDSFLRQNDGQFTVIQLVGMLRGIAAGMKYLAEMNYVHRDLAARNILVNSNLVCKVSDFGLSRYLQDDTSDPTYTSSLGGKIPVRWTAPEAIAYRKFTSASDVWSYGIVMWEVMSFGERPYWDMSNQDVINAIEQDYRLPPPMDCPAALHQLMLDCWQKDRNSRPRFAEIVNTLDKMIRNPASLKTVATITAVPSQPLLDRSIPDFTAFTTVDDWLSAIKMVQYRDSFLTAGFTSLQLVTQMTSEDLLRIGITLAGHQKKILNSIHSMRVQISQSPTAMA

[8] = target: Serine/threonine-protein kinase MRCK gamma (Homo sapiens) (UniProt Q6DT37); assay: Selectivity interaction (Ambit KINOMEscan and KiNATiv profiling in Jurkat cells) EUB0000090b CDC42BPG; type: cell-based; conditions: at 1 µM
[9] = target: Serine/threonine-protein kinase MARK2 (Homo sapiens) (UniProt Q7KZI7); assay: Selectivity interaction (Kinase screening (Nanosyn)) EUB0000604a MARK2
[10] = target: Cyclin-dependent kinase-like 1 (Homo sapiens) (UniProt Q00532); assay: Selectivity interaction (KinomeScan (DiscoverX)) EUB0001619a CDKL1; conditions: at 1 µM
Chain of Cyclin-dependent kinase-like 1 (Homo sapiens) (Q00532 whole entry): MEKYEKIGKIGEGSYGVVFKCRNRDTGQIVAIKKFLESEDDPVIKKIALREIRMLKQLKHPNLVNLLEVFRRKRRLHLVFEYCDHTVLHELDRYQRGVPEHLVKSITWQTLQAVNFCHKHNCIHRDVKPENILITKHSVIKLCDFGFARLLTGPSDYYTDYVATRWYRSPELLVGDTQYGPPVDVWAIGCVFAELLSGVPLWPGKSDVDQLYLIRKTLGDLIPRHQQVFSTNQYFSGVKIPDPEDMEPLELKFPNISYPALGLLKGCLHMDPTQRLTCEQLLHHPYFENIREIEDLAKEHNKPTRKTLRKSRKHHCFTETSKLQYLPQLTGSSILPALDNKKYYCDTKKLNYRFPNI

Chain of TGF-beta receptor type-2 (Homo sapiens) (P37173 whole entry): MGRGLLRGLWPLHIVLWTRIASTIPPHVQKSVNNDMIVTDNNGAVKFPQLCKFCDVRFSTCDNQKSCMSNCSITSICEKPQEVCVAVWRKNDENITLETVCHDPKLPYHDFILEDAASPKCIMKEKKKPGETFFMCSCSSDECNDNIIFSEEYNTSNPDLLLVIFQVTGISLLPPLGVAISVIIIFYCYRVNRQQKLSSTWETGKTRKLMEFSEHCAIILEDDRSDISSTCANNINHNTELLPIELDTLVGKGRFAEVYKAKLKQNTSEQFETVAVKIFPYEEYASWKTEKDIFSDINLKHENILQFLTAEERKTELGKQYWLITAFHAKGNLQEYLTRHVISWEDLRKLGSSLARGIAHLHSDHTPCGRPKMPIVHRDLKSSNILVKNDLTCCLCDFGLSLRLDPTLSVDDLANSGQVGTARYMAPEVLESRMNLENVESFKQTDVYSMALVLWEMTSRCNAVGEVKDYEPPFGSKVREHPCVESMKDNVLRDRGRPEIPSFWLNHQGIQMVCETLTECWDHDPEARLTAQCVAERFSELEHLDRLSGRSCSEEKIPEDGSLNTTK
Chain of Serine/threonine-protein kinase MRCK gamma (Homo sapiens) (Q6DT37 whole entry): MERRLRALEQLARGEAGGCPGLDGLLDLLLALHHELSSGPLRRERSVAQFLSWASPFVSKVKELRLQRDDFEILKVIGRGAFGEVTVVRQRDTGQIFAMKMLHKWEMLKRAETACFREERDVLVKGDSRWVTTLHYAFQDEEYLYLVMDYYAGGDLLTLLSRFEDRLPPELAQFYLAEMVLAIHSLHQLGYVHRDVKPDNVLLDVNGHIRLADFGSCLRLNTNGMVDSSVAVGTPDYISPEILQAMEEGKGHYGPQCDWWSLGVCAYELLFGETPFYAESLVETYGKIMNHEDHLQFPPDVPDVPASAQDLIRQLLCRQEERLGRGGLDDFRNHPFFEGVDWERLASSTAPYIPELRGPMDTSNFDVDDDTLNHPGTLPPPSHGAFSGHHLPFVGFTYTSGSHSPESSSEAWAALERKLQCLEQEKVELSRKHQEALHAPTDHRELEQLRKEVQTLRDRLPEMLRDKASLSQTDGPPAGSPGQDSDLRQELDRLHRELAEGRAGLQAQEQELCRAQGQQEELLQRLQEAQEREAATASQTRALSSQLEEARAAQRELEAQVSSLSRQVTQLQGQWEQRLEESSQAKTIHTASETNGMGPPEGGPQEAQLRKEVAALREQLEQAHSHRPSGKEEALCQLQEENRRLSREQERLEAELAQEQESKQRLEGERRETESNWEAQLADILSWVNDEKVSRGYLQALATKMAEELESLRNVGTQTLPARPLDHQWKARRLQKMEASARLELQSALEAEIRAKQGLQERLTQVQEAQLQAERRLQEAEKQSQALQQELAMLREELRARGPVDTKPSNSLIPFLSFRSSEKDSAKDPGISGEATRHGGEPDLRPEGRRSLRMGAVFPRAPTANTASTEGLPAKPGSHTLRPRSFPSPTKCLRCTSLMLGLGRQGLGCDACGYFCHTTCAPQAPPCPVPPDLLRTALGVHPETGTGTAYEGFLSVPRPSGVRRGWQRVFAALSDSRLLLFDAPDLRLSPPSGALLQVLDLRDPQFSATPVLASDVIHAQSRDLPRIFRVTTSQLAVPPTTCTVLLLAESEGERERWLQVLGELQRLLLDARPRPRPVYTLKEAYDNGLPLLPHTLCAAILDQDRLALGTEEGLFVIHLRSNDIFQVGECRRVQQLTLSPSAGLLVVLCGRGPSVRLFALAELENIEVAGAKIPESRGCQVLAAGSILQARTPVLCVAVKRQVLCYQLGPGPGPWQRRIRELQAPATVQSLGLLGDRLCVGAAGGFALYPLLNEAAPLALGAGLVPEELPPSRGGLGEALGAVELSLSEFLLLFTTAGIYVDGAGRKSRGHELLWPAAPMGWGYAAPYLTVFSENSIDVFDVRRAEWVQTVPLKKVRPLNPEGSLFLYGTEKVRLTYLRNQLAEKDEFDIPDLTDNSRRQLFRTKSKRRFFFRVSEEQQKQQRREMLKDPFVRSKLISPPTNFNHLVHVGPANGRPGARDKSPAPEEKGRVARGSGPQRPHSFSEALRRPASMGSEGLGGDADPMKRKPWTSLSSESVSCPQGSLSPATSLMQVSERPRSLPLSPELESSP
Chain of 5'-AMP-activated protein kinase catalytic subunit alpha-1 (Q13131 whole entry, looked up): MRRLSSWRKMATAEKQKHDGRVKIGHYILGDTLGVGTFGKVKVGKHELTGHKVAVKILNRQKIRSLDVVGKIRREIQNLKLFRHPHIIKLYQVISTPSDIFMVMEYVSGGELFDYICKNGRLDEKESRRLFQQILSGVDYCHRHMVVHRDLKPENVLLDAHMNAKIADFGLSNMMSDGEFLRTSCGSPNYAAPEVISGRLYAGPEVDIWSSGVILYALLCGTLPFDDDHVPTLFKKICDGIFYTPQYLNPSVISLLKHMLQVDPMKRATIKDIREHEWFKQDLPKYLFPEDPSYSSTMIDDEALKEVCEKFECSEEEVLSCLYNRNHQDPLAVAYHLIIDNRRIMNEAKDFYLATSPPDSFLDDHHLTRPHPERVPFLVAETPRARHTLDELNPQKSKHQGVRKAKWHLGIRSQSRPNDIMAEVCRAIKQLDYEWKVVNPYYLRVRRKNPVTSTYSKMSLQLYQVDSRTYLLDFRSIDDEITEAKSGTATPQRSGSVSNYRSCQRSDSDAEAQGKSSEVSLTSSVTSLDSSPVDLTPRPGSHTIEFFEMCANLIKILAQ
Chain of Serine/threonine-protein kinase MARK2 (Homo sapiens) (Q7KZI7 whole entry): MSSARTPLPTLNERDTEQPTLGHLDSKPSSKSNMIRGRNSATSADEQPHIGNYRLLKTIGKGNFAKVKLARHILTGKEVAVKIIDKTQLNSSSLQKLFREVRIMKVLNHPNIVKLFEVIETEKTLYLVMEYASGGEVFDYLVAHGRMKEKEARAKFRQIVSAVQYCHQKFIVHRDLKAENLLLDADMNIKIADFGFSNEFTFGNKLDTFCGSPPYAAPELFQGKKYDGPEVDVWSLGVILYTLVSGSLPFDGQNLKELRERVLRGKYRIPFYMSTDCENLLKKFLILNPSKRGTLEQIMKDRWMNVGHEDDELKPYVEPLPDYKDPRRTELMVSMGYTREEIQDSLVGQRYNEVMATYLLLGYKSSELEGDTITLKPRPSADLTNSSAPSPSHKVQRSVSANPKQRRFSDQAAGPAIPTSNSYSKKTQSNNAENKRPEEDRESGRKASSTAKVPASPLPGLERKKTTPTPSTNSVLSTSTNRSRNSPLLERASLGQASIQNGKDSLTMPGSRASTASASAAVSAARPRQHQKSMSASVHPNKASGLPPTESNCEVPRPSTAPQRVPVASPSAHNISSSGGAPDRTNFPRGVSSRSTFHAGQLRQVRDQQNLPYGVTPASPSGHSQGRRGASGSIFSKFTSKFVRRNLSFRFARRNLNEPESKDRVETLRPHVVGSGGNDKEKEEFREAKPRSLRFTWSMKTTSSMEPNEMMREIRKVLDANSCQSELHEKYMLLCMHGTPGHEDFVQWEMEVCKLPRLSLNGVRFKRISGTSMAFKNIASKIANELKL
Chain of Serine/threonine-protein kinase N2 (Q16513 whole entry, looked up): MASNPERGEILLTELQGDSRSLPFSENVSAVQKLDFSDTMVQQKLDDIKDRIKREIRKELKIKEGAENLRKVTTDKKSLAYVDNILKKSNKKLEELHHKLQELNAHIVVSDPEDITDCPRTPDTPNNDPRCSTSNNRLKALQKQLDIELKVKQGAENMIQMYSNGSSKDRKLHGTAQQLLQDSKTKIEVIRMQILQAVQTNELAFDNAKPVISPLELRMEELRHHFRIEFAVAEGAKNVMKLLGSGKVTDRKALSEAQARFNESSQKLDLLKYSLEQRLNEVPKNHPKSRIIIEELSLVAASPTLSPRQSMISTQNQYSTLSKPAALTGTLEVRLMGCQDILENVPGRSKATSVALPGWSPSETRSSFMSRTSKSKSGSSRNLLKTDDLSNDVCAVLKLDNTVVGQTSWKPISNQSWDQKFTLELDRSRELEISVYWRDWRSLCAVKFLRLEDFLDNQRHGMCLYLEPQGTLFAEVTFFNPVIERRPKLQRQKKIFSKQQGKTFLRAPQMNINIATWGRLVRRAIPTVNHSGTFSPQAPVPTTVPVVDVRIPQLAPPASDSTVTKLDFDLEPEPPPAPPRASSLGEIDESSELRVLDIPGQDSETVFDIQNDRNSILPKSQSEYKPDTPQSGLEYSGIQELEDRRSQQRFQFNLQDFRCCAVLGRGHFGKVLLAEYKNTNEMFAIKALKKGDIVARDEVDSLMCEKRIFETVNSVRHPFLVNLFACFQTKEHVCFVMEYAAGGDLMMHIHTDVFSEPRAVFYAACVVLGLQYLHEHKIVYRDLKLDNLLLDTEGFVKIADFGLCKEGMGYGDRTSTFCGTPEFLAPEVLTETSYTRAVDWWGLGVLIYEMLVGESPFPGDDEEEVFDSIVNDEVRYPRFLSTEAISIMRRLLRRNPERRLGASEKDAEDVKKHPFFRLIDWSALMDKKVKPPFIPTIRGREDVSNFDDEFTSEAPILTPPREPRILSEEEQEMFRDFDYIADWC

Structure (SMILES): Cc1ccc(-c2ccc3c(ccc4sc5c(c43)NC[C@@H](C)NC5=O)n2)cn1
- % of inhibition [1]: 12%

Structure (SMILES): O=C(NOC[C@H](O)CO)c1ccc(F)c(F)c1Nc1ccc(I)cc1F
- % of control [2]: 100%

Structure (SMILES): Cn1cc(-n2cnc3c(NCc4nc5cc(Cl)c(Cl)cc5[nH]4)nc(N4CCOCC4)nc32)cn1
- % of control [3]: 9.97%
- % of inhibition [4]: -5.46%

Structure (SMILES): CC[C@@H]1[C@H](F)C(=O)N[C@@H]1COc1nccc2cc(C(N)=O)c(OC)cc12 [ZIMLOVISERTIB]
- % of inhibition [5]: 13.1%

Structure (SMILES): O[C@H]1CC[C@H](Nc2ncc3nc(Nc4c(F)cc(F)cc4F)n([C@H]4CCOC4)c3n2)CC1
- % of control [6]: 85%

Structure (SMILES): CN(C)C/C=C/C(=O)Nc1ccc(C(=O)N2CCCC(Nc3ncc(Cl)c(-c4c[nH]c5ccccc45)n3)C2)cc1 (stereo not given)
- % of control [7]: 95%
- % of control [8]: 90%

Structure (SMILES): Cc1cnc(Nc2ccc(F)cc2Cl)nc1-c1c[nH]c(C(=O)N[C@H](CO)c2cccc(Cl)c2)c1
- % of inhibition [9]: 5%

Structure (SMILES): N#Cc1cccc(-c2c[nH]c3ncnc(N4CCOCC4)c23)c1
- % of control [10]: 100%
